Biological target: Lysine-specific histone demethylase 1A (Homo sapiens, UniProt O60341)
Experiment: LANCE LSD1/KDM1A Demethylase Assay: 10 μL of 1 nM LSD-1 enzyme (ENZO BML-SE544-0050) in the assay buffer (50 mM Tris, pH 7.5, 0.01% Tween-20, 25 mM NaCl, 5 mM DTT) were preincubated for 1 hour at 25° C. with 0.8 μL compound/DMSO dotted in black 384 well polystyrene plates. Reactions were started by addition of 10 μL of assay buffer containing […] Biotin-labeled Histone H3 peptide substrate: ART-K(Me1)-QTARKSTGGKAPRKQLA-GGK(Biotin) SEQ ID NO:1 (AnaSpec 64355) and incubated for 1 hour at 25° C. Reactions were stopped by addition of 10 μL 1× LANCE Detection Buffer (PerkinElmer CR97-100) supplemented with 1.5 nM Eu-anti-unmodified H3K4 Antibody (PerkinElmer TRF0404), and 225 nM LANCE Ultra Streptavidin (PerkinElmer TRF102) along with 0.9 mM Tranylcypromine-HCl (Millipore 616431). After stopping the reactions plates were incubated for 30 minutes and read on a PHERAstar FS plate reader (BMG Labtech).

COC(=O)N(C)c1cc(-c2c(-c3ccc(C#N)cc3)nc(OC[C@@H]3CCCN(C)C3)c3nccn23)ccc1C
IC50: < 50 nM
